Experimental data published in US20220306695A1, “COMPSTATIN ANALOGUES AND THEIR MEDICAL USES” (priority 2019, published 2022).
Starred links: 1 amine or outer side, 2 acyl side, 3 side chain; linkers in the order of their positions; H or OH if unused. Positions of bridges follow the written chain, without caps; N, C: chain ends. Non-standard residues stand in square brackets, D forms with d. Residues, ends and D or L forms follow the SMILES beside them. Groups on a side chain read outwards from the residue. *: point of attachment. X1 = O=C(O)CCCCCCCCCCCCCCC(=O)N1CCN(CC(=O)*)CC1; Trp(1-Me) = Cn1cc(C[C@H](N)C(=O)O)c2ccccc21; Abu(4-yl) = O=C([C@H](CC[*:3])N[*:1])[*:2]; C18 diacid = O=C(O)CCCCCCCCCCCCCCCCC(=O)*; C16 diacid = O=C(O)CCCCCCCCCCCCCCC(=O)*; γGlu = O=C(O)[C@H](CCC(=O)[*:2])N[*:1]; AEEA = NCCOCCOCC(=O)O; Sar = CNCC(=O)O

Test system: classical complement pathway
Assay: In vitro haemolysis assay (inhibition of classical complement pathway)
Type: cell-based, human
Conditions: Table 3; cells that print μM; read-out: IC50, in vitro analysis of inhibition of hemolysis
Outline: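 Serially diluted compound (9 points) was preincubated 15 min at room temperature with diluted human serum, titrated per batch to give 70-90% maximal haemolysis, in Tris/casein buffer pH 7.4 with Mg2+/Ca2+. Antibody-sensitized sheep erythrocytes were then added for 30 min at 37° C, and the reaction was stopped with EDTA. Haemolysis was read at A405, with IC50 from 4PL fit.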

Question: Which IC50 does the source give for `CC[C@H](C)[C@H](NC(C)=O)C(=O)N[C@H]1CSSC[C@@H](C(=O)N[C@H](C(N)=O)[C@@H](C)O)NC(=O)[C@H](CCCNC(=N)N)NC(=O)[C@H](Cc2c[nH]cn2)NC(=O)[C@H](Cc2c[nH]cn2)NC(=O)CNC(=O)[C@H](Cc2c[nH]c3ccccc23)NC(=O)[C@H](CC(=O)O)NC(=O)[C@H](CCC(N)=O)NC(=O)[C@H](C(C)C)NC(=O)[C@H](C(C)C)NC1=O` [Ac-compstatin, reference compound] here?
Answer: Its IC50 is over 5 µM.

Same assay, conditions: Table 3; human serum, sensitized sheep red blood cells; read-out: IC50[nM], in vitro analysis of inhibition of hemolysis

Question: How did the IC50 turn out when `CC[C@H](C)[C@@H]1NC(=O)[C@@H](NC(=O)[C@H](Cc2ccccc2)NC(=O)[C@H](CCC(=O)O)NC(=O)[C@H](CO)NC(C)=O)CCSC[C@@H](C(=O)N[C@H](C(=O)N[C@@H](CCC(=O)O)C(=O)NCC(=O)N[C@@H](CCC(=O)O)C(=O)NCCOCCOCC(=O)N[C@@H](CCC(=O)O)C(=O)N[C@@H](CO)C(=O)N[C@@H](CCCCNC(=O)CC[C@H](NC(=O)CCCCCCCCCCCCCCCCC(=O)O)C(=O)O)C(N)=O)[C@@H](C)O)NC(=O)[C@H](CCCNC(=N)N)NC(=O)[C@H](Cc2c[nH]cn2)NC(=O)[C@H](CCC(=O)O)NC(=O)CNC(=O)[C@H](Cc2c[nH]c3ccccc23)NC(=O)[C@H](CC(=O)O)NC(=O)[C@H](CCC(N)=O)NC(=O)[C@H](Cc2cn(C)c3ccccc23)NC1=O` [Compound 165] (Ac-SEF[Abu(4-yl)]I[Trp(1-Me)]QDWGEHRCTEGE[AEEA]ESK([γGlu-C18 diacid])-NH2; thioether 4-14) was run?
Answer: The IC50 was under 0.25 µM.

Question: `CC[C@H](C)[C@@H]1NC(=O)[C@@H](NC(=O)[C@H](Cc2ccc(O)cc2)NC(C)=O)CSSC[C@@H](C(=O)N[C@H](C(N)=O)[C@@H](C)O)NC(=O)[C@H](CCCNC(=N)N)NC(=O)[C@H](Cc2c[nH]cn2)NC(=O)[C@H](CCC(=O)O)NC(=O)CNC(=O)[C@H](Cc2c[nH]c3ccccc23)NC(=O)[C@H](CC(=O)O)NC(=O)[C@H](CCC(N)=O)NC(=O)[C@H](Cc2c[nH]c3ccccc23)NC1=O` [Compound 9] (Ac-YCIWQDWGEHRCT-NH2; disulfide 2-12) was tested. Which IC50 did it give?
Answer: Its IC50 is under 0.1 µM.

Question: `CC[C@H](C)[C@@H]1NC(=O)[C@@H](NC(=O)[C@H](Cc2ccccc2)NC(=O)[C@H](CCC(=O)O)NC(=O)[C@H](CO)NC(C)=O)CSCC[C@@H](C(=O)N[C@H](C(=O)N[C@@H](CCC(=O)O)C(=O)NCC(=O)N[C@@H](CCC(=O)O)C(=O)NCCOCCOCC(=O)N[C@@H](CCC(=O)O)C(=O)N[C@@H](CO)C(=O)N[C@@H](CCCCNC(=O)CC[C@H](NC(=O)CCCCCCCCCCCCCCCCC(=O)O)C(=O)O)C(=O)O)[C@@H](C)O)NC(=O)[C@H](CCCNC(=N)N)NC(=O)[C@H](Cc2c[nH]cn2)NC(=O)[C@H](CCC(=O)O)NC(=O)CNC(=O)[C@H](Cc2c[nH]c3ccccc23)NC(=O)[C@H](CC(=O)O)NC(=O)[C@H](CCC(N)=O)NC(=O)[C@H](Cc2cn(C)c3ccccc23)NC1=O` [Compound 163, Ac-SEFA(1)I[1-Me-Trp]QDWGEHRhC(1)TEGE[Peg3]ES-K([17-carboxy-heptadecanoyl][γGlu])-OH] (Ac-SEFCI[Trp(1-Me)]QDWGEHR[Abu(4-yl)]TEGE[AEEA]ESK([γGlu-C18 diacid])-OH; thioether 4-14) was tested. Which IC50 did it give?
Answer: Its IC50 is under 0.1 µM.

Question: How did the IC50 turn out when `CC[C@H](C)[C@@H]1NC(=O)[C@@H](NC(=O)[C@H](Cc2ccccc2)NC(=O)[C@H](CCC(=O)O)NC(=O)[C@H](CO)NC(C)=O)CSSC[C@@H](C(=O)N[C@@H](CO)C(=O)N[C@@H](CCC(=O)O)C(=O)N[C@@H](C)C(N)=O)NC(=O)[C@H](CCCNC(=N)N)NC(=O)[C@H](Cc2c[nH]cn2)NC(=O)[C@H](CCC(=O)O)NC(=O)CNC(=O)[C@H](Cc2c[nH]c3ccccc23)NC(=O)[C@H](CC(=O)O)NC(=O)[C@H](CCC(N)=O)NC(=O)[C@H](Cc2cn(C)c3ccccc23)NC1=O` [Compound 84] (Ac-SEFCI[Trp(1-Me)]QDWGEHRCSEA-NH2; disulfide 4-14) was run?
Answer: Its IC50 is under 0.1 µM.

Question: How did the IC50 turn out when `CC[C@H](C)[C@@H]1NC(=O)[C@@H](NC(=O)[C@H](Cc2ccccc2)NC(=O)[C@H](CCC(=O)O)NC(=O)[C@H](CO)NC(C)=O)CSSC[C@@H](C(=O)N(C)CC(=O)N[C@@H](CCC(=O)O)C(=O)NCC(=O)N[C@@H](CCC(=O)O)C(=O)NCCOCCOCC(=O)N[C@@H](CCCCNC(=O)CC[C@H](NC(=O)CNC(=O)CC[C@H](NC(=O)CCCCCCCCCCCCCCCCC(=O)O)C(=O)O)C(=O)O)C(N)=O)NC(=O)[C@H](CCCNC(=N)N)NC(=O)[C@H](Cc2c[nH]cn2)NC(=O)[C@H](CCC(=O)O)NC(=O)CNC(=O)[C@H](Cc2c[nH]c3ccccc23)NC(=O)[C@H](CC(=O)O)NC(=O)[C@H](CCC(N)=O)NC(=O)[C@H](Cc2cn(C)c3ccccc23)NC1=O` [Compound 138] (Ac-SEFCI[Trp(1-Me)]QDWGEHRC[Sar]EGE[AEEA]K([γGlu-Gly-γGlu-C18 diacid])-NH2; disulfide 4-14) was run?
Answer: Its IC50 is under 0.1 µM.

Question: Which IC50 does the source give for `CC[C@H](C)[C@H](NC(=O)[C@H](C)NC(=O)[C@H](CO)NC(=O)CNC(=O)[C@H](CCC(=O)O)NC(C)=O)C(=O)N[C@H]1CSSC[C@@H](C(=O)N[C@H](C(=O)N[C@@H](CCC(=O)O)C(=O)NCC(=O)N[C@@H](CCCCNC(=O)CC[C@H](NC(=O)CCCCCCCCCCCCCCC(=O)O)C(=O)O)C(N)=O)[C@@H](C)O)NC(=O)[C@H](CCCNC(=N)N)NC(=O)[C@H](Cc2c[nH]cn2)NC(=O)[C@H](CCC(=O)O)NC(=O)CNC(=O)[C@H](Cc2c[nH]c3ccccc23)NC(=O)[C@H](CC(=O)O)NC(=O)[C@H](CCC(N)=O)NC(=O)[C@H](Cc2c[nH]c3ccccc23)NC(=O)[C@H]([C@@H](C)CC)NC1=O` [Compound 101] (Ac-EGSAICIWQDWGEHRCTEGK([γGlu-C16 diacid])-NH2; disulfide 6-16) here?
Answer: Its IC50 is under 0.5 µM.

Question: How did the IC50 turn out when `CC[C@H](C)[C@H](NC(C)=O)C(=O)N[C@H]1CSSC[C@@H](C(=O)N[C@H](C(=O)N[C@@H](CCC(=O)O)C(=O)NCC(=O)N[C@@H](CCCCNC(=O)COCCOCCNC(=O)COCCOCCNC(=O)CN2CCN(C(=O)CCCCCCCCCCCCCCC(=O)O)CC2)C(N)=O)[C@@H](C)O)NC(=O)[C@H](CCCNC(=N)N)NC(=O)[C@H](Cc2c[nH]cn2)NC(=O)[C@H](CCC(=O)O)NC(=O)CNC(=O)[C@H](Cc2c[nH]c3ccccc23)NC(=O)[C@H](CC(=O)O)NC(=O)[C@H](CCC(N)=O)NC(=O)[C@H](Cc2c[nH]c3ccccc23)NC(=O)[C@H]([C@@H](C)CC)NC1=O` [Compound 95] (Ac-ICIWQDWGEHRCTEGK([AEEA-AEEA-X1])-NH2; disulfide 2-12) was run?
Answer: Its IC50 is under 0.5 µM.

Question: How did the IC50 turn out when `CC[C@H](C)[C@H](NC(C)=O)C(=O)N[C@H]1CSSC[C@@H](C(=O)N(C)CC(N)=O)NC(=O)[C@H](CCCNC(=N)N)NC(=O)[C@H](Cc2c[nH]cn2)NC(=O)[C@H](CCC(=O)O)NC(=O)CNC(=O)[C@H](Cc2c[nH]c3ccccc23)NC(=O)[C@H](CC(=O)O)NC(=O)[C@H](CCC(N)=O)NC(=O)[C@H](Cc2c[nH]c3ccccc23)NC(=O)[C@H]([C@@H](C)CC)NC1=O` [Compound 13] (Ac-ICIWQDWGEHRC[Sar]-NH2; disulfide 2-12) was run?
Answer: Its IC50 is under 0.1 µM.

Same assay, conditions: Table 4; valine 3 versus isoleucine 3 pairs; read-out: CP hemolysis IC50

Question: How did the IC50 turn out when `CC[C@H](C)[C@H](NC(C)=O)C(=O)N[C@H]1CSSC[C@@H](C(=O)N[C@@H](CO)C(N)=O)NC(=O)[C@H](CCCNC(=N)N)NC(=O)[C@H](Cc2c[nH]cn2)NC(=O)[C@H](CCC(=O)O)NC(=O)CNC(=O)[C@H](Cc2c[nH]c3ccccc23)NC(=O)[C@H](CC(=O)O)NC(=O)[C@H](CCC(N)=O)NC(=O)[C@H](Cc2c[nH]c3ccccc23)NC(=O)[C@H](C(C)C)NC1=O` [G, reference compound] (Ac-ICVWQDWGEHRCS-NH2; disulfide 2-12) was run?
Answer: The IC50 was 0.18 µM.
